PMC3773999 (Bioorganic & medicinal chemistry, 2013)

Legend:
hMC4R = hMC4R (Homo sapiens, UniProt P32245); settings: saturation binding, Figure 2
melanocortin receptors = settings: ref [28]; cited from earlier work

Chain of hMC4R (P32245 whole entry): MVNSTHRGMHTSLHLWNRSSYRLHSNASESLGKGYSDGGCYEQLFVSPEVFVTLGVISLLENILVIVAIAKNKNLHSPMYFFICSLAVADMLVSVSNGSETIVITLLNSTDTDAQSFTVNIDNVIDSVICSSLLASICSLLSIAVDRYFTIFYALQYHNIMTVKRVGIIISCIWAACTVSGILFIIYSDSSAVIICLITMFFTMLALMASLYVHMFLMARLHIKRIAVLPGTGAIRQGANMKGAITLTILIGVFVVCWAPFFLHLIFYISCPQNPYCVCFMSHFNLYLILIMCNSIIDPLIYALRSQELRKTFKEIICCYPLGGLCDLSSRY

Row | Compound | non-specific binding relative to probes 3 and 4 (hMC4R) [%] | off-rate (melanocortin receptors)
1 | N=C(N)NCCC[C@H](NC(=O)[C@@H](Cc1ccccc1)NC(=O)[C@H](Cc1c[nH]cn1)NC(=O)COCC(=O)NCCCOCCOCCOCCCNC(=O)CN(CCN(CCN(CC(=O)O)CC(=O)O)CC(=O)O)CC(=O)O)C(=O)N[C@@H](Cc1c[nH]c2ccccc12)C(N)=O [Probe 2, Eu-DTPA-PEGO-MSH(4)] | 20 | 
2 | Ac-Ser-Tyr-Ser-Nle-Glu-His-DPhe-Arg-Trp-Gly-Lys-Pro-Val-NH2 [NDP-α-MSH] |  | approximately eight
